According to ChEMBL document CHEMBL4270669 (J Med Chem, 2018):
pIC50, pKd, pKi: −log10 of the molar value. ≈ marks a conversion by molar mass, not a printed value. Calls of active or inactive are those of the source. The calls are words filed in the database; no cut-off is given here.

Legend:
[1] = tested on: A2058; test: Induction of cell cycle arrest in human A2058 cells assessed as accumulation at G1 phase at 5 uM after 24 hrs by Hoechst33342-staining based FACS analysis; assay type: functional
[2] = tested on: A2058; test: Induction of cell cycle arrest in human A2058 cells assessed as decrease in cell levels at G2/M phase at 5 uM after 24 hrs by Hoechst33342-staining based FACS analysis; assay type: functional
[3] = tested on: SK-OV-3; test: Induction of cell cycle arrest in human SKOV3 cells assessed as decrease in cell levels at G2/M phase at 2 uM after 24 hrs by Hoechst33342-staining based FACS analysis; assay type: functional
[4] = tested on: SK-OV-3; test: Induction of cell cycle arrest in human SKOV3 cells assessed as accumulation at G1 phase at 2 uM after 24 hrs by Hoechst33342-staining based FACS analysis; assay type: functional
[5] = tested on: A2058; test: Antiproliferative activity against human A2058 cells at 10 uM after 72 hrs by ATPlite based assay; assay type: functional, cell-based
[6] = tested on: SK-OV-3; test: Induction of cell cycle arrest in human SKOV3 cells assessed as decrease in cell levels at S phase at 2 uM after 24 hrs by Hoechst33342-staining based FACS analysis; assay type: functional
[7] = tested on: A2058; test: Induction of cell cycle arrest in human A2058 cells assessed as decrease in cell levels at S phase at 5 uM after 24 hrs by Hoechst33342-staining based FACS analysis; assay type: functional
[8] = tested on: SK-OV-3; test: Antiproliferative activity against human SKOV3 cells at 10 uM after 72 hrs by ATPlite based assay; assay type: functional, cell-based
[9] = tested on: Mus musculus; test: Antiepileptic activity in Tsc1flox/flox/GFAP-Cre conditional knocked out mouse model assessed as reduction in seizures at 100 mg/kg, po qd treated from days 21 to 53 postnatal by electroencephalography; assay type: functional, organism-based
[10] = target: Phosphatidylinositol 4-kinase beta (Homo sapiens, UniProt Q9UBF8)
Description: Inhibition of human PI4Kbeta (1 to 828 residues) expressed in mammalian expression system by KINOMEscan assay

[11] = Clearance in rat hepatocytes assessed per million cells; assay type: ADME, cell-based, Hepatocyte; conditions: read-out: CLH
[12] = Thermodynamic solubility of the compound in FeSSIF; assay type: physicochemical; conditions: read-out: Therm_solubility
[13] = target: PDE4D2 (3',5'-cyclic-AMP phosphodiesterase 4D) (Homo sapiens, UniProt Q08499); test: Inhibition of recombinant human PDE4D2 at 10 uM using [3H]cAMP/cAMP by scintillation counting method relative to control; conditions: recombinant human PDE4D2, probe [3H]cAMP/cAMP
Sequence of PDE4D2 (3',5'-cyclic-AMP phosphodiesterase 4D) (Q08499 whole entry, canonical isoform): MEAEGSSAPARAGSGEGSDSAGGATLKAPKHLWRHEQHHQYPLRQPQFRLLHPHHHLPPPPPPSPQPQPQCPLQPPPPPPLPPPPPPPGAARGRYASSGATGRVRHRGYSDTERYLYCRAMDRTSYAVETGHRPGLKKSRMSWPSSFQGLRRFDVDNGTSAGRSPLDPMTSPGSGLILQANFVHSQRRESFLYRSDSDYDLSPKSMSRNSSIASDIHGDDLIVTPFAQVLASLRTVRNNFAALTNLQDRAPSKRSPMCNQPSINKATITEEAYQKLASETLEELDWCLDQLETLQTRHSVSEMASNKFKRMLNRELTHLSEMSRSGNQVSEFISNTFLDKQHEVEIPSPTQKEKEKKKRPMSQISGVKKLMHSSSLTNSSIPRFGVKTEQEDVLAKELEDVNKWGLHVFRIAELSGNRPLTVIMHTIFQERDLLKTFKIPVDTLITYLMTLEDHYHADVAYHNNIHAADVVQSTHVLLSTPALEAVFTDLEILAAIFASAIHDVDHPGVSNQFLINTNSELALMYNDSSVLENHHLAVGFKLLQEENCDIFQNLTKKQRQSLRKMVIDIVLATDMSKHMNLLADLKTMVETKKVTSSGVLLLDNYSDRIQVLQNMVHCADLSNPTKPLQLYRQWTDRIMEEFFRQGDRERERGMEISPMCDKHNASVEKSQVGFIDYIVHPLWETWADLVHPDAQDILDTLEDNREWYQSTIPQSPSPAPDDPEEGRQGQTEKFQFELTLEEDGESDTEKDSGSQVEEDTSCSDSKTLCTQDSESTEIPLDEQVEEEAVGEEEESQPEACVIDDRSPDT

[14] = target: T1, Phosphatidylinositol 4,5-bisphosphate 3-kinase catalytic subunit alpha isoform (Homo sapiens, UniProt P42336)
T1 sequence (P42336 whole entry, canonical isoform): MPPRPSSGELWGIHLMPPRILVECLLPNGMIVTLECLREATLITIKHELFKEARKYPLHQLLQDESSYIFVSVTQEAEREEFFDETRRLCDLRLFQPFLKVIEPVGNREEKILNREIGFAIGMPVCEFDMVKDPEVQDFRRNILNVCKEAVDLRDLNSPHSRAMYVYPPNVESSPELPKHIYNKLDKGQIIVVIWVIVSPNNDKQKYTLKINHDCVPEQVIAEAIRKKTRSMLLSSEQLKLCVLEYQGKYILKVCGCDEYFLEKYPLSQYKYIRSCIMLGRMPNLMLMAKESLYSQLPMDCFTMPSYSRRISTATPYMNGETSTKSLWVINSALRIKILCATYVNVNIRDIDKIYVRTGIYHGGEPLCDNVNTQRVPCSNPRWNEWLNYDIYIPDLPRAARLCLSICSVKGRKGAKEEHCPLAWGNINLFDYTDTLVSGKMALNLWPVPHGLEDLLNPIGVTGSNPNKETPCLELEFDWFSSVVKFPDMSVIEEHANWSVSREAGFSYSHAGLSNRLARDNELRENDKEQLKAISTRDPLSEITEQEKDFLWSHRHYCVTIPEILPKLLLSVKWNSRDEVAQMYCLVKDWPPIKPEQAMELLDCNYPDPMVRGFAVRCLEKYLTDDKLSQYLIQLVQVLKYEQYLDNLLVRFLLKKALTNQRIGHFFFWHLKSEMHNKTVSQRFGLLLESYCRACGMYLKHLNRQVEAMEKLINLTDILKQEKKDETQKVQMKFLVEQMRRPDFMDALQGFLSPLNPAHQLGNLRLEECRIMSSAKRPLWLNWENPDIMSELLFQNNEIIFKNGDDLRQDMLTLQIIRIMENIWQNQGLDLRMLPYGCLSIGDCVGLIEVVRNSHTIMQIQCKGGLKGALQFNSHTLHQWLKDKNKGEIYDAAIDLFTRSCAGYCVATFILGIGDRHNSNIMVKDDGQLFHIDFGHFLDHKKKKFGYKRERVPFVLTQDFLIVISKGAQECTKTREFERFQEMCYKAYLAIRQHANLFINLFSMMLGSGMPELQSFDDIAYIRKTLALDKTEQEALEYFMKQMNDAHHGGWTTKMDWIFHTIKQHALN

[15] = Thermodynamic solubility of the compound in FaSSIF; assay type: physicochemical; conditions: read-out: Therm_solubility
[16] = tested on: A 172; test: Growth inhibition of human A172 cells after 72 hrs by ATPlite based assay; assay type: functional; conditions: A 172, 72 h, pooled result: one value given for 8 cell lines, strains, targets or settings
[17] = Toxicity in mouse; assay type: organism-based; conditions: in vivo
[18] = target: Phosphatidylinositol 4,5-bisphosphate 3-kinase catalytic subunit beta isoform (Homo sapiens, UniProt P42338)
Description: Inhibition of human PI3Kbeta (118 to 1070 residues) expressed in mammalian expression system by KINOMEscan assay

[19] = target: T1, Phosphatidylinositol 4,5-bisphosphate 3-kinase catalytic subunit alpha isoform; remark: listed apart in the source
Description: Inhibition of human PI3Kalpha (108 to 1068 residues) expressed in mammalian expression system by KINOMEscan assay

[20] = tested on: Mus musculus; test: Increase in insulin levels in C57BL/6JRj mouse plasma at 50 mg/kg, po administered as single dose; assay type: functional, organism-based
[21] = target: T2, Serine/threonine-protein kinase mTOR (Homo sapiens, UniProt P42345)
[22] = Thermodynamic solubility of the compound at pH 1.2; assay type: physicochemical; conditions: buffer, read-out: Therm_solubility
[23] = target: T2, Serine/threonine-protein kinase mTOR; remark: listed apart in the source
Description: Inhibition of human mTOR (1382 to 2549 residues) expressed in mammalian expression system by KINOMEscan assay

[24] = tested on: Rattus norvegicus; test: Increase in insulin levels in Sprague-Dawley rat plasma at 10 mg/kg, po administered as single dose; assay type: functional, organism-based
[25] = AUC in Sprague-Dawley rat brain at 10 mg/kg, po administered as single dose after 8 hrs; assay type: ADME, organism-based; parameters: dose 10 mg/kg, time < 8 hr, route oral; conditions: in vivo
[26] = Half life in rat hepatocytes; assay type: ADME, cell-based, Hepatocyte
[27] = Thermodynamic solubility of the compound at pH 4.5; assay type: physicochemical; conditions: buffer, read-out: Therm_solubility
[28] = Unbound fraction in rat brain; assay type: ADME, tissue-based
[29] = Inhibition of TORC1 in human A2058 cells assessed as decrease in S6 phosphorylation at Ser235/236 after 1 hr by Western blot analysis; assay type: cell-based; conditions: A2058, 1 h
[30] = Cmax in C57BL/6JRj mouse brain at 50 mg/kg, po administered as single dose; assay type: ADME, organism-based; parameters: dose 50 mg/kg, route oral
[31] = Metabolic stability in mouse liver microsomes assessed as compound remaining after 30 mins; assay type: ADME, microsome; conditions: read-out: Stability
[32] = Thermodynamic solubility of the compound at pH 6.8; assay type: physicochemical; conditions: buffer, read-out: Therm_solubility
[33] = tested on: Mus musculus; test: Toxicity in BALB/C nude mouse xenografted with human OVCAR3 cells assessed as body weight loss at 50 mg/kg, po administered daily for 28 days relative to control; assay type: organism-based; conditions: in vivo, 672 h
[34] = Clearance in mouse hepatocytes assessed per million cells; assay type: ADME, cell-based, Hepatocyte; conditions: read-out: CLH
[35] = tested on: Rattus norvegicus; test: Increase in glucose levels in Sprague-Dawley rat plasma at 10 mg/kg, po administered as single dose; assay type: functional, organism-based
[36] = target: COX1 (Prostaglandin G/H synthase 1) (Homo sapiens, UniProt P23219); test: Inhibition of recombinant human COX1 at 10 uM using arachidonic acid/ADHP as substrate by fluorometric method relative to control; conditions: recombinant human COX1, probe arachidonic acid/ADHP
Sequence of COX1 (Prostaglandin G/H synthase 1) (P23219 whole entry): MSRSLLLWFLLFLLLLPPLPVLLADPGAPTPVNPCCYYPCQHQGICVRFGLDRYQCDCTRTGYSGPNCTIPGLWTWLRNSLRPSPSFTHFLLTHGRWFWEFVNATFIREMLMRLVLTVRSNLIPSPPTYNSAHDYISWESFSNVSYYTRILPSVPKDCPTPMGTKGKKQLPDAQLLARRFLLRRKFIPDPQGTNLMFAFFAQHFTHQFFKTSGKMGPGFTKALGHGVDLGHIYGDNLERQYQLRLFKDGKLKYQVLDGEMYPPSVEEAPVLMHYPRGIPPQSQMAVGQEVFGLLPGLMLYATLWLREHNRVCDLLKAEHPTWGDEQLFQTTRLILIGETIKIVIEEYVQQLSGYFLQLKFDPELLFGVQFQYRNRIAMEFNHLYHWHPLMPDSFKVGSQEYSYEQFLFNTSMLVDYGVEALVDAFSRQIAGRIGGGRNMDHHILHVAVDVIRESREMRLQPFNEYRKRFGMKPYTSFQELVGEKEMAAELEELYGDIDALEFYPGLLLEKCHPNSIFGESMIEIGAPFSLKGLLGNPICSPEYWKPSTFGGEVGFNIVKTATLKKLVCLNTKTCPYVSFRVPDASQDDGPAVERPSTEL

[37] = target: Voltage-gated inwardly rectifying potassium channel KCNH2 (Homo sapiens, UniProt Q12809); test: Binding affinity to human ERG expressed in CHO cell membranes at 10 uM by radioligand displacement assay
Sequence of Voltage-gated inwardly rectifying potassium channel KCNH2 (Q12809 whole entry): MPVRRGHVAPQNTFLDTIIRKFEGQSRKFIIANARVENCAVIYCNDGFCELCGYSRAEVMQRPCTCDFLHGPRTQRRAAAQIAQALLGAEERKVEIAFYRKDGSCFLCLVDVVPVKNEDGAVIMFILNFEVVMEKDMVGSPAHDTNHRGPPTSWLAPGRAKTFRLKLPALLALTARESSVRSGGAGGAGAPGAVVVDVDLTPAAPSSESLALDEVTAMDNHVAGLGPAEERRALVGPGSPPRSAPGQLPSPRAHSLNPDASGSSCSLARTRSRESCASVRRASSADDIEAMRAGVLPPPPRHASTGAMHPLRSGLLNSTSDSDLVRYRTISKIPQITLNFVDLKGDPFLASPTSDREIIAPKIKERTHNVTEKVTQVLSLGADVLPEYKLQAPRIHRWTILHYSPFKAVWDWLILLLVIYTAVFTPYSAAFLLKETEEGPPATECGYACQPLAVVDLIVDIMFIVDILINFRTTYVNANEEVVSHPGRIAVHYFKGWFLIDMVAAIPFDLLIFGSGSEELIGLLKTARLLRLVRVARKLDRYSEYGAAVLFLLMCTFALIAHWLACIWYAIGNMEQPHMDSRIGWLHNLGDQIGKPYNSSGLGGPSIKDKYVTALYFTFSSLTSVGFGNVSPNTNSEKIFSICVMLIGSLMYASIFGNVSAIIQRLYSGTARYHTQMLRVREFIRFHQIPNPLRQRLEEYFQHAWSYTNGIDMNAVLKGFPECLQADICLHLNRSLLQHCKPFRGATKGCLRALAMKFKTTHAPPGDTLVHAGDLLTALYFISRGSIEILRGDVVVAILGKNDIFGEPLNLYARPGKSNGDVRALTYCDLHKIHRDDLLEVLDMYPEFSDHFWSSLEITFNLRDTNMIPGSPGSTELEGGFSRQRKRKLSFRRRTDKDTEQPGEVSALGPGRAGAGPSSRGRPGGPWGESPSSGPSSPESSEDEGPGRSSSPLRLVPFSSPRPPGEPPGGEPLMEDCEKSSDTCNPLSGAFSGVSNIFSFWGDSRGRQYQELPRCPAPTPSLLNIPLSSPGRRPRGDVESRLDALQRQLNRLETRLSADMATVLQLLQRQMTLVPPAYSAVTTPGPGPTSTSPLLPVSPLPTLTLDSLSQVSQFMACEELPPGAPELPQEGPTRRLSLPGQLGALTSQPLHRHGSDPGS

[38] = Lipophilicity, log D of the compound at pH 7.4; assay type: physicochemical; conditions: buffer
[39] = AUC in Sprague-Dawley rat plasma at 10 mg/kg, po administered as single dose after 8 hrs; assay type: ADME, organism-based; parameters: dose 10 mg/kg, time < 8 hr, route oral
[40] = tested on: Mus musculus; test: Increase in glucose levels in C57BL/6JRj mouse plasma at 50 mg/kg, po administered as single dose; assay type: functional, organism-based
[41] = tested on: OVCAR-3; test: Antitumor activity against human OVCAR3 cells xenografted in BALB/C nude mouse assessed as tumor growth inhibition at 50 mg/kg, po administered daily for 28 days relative to control; assay type: functional; conditions: OVCAR-3, po, 672 h, read-out: TGI
[42] = target: T3, Phosphatidylinositol 4,5-bisphosphate 3-kinase catalytic subunit delta isoform (Homo sapiens, UniProt O00329)
T3 sequence (O00329 whole entry): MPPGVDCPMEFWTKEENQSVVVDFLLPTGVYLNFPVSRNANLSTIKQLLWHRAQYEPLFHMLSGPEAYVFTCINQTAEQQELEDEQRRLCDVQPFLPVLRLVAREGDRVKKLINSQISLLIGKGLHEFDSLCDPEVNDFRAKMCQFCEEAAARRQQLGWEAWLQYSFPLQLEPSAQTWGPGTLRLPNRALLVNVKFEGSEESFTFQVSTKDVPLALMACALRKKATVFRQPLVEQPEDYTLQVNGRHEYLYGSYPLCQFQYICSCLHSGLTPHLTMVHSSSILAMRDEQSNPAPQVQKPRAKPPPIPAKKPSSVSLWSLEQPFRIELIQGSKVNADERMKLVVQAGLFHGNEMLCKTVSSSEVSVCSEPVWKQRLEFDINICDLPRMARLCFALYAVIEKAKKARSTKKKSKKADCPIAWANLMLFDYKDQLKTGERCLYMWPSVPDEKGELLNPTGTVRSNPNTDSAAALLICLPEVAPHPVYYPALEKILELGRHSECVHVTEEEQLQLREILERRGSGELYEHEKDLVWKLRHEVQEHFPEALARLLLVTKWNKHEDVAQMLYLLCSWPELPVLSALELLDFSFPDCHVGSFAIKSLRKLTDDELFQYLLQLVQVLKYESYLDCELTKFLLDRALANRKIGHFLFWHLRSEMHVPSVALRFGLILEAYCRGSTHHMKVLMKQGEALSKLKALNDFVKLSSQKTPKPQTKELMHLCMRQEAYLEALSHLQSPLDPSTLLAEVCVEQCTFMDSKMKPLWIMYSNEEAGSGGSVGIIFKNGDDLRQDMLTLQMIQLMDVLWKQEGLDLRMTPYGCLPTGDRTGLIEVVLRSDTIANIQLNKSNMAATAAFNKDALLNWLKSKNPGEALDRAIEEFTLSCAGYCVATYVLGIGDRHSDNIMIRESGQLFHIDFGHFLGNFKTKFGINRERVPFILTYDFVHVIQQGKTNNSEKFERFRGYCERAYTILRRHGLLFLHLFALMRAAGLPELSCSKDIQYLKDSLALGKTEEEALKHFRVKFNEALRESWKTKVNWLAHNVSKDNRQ
Description: Inhibition of human PI3Kdelta (108 to 1044 residues) expressed in mammalian expression system by KINOMEscan assay

[43] = Cmax in Sprague-Dawley rat plasma at 10 mg/kg, po administered as single dose after 30 mins; assay type: ADME, organism-based; parameters: dose 10 mg/kg, route oral
[44] = target: Phosphatidylinositol 3-kinase catalytic subunit type 3 (Homo sapiens, UniProt Q8NEB9); test: Inhibition of human VPS34 (282 to 879 residues) expressed in mammalian expression system by KINOMEscan assay
[45] = Metabolic stability in rat liver microsomes assessed as compound remaining after 30 mins; assay type: ADME, microsome; conditions: read-out: Stability
[46] = Inhibition of TORC2 in human A2058 cells assessed as decrease in PKB/Akt phosphorylation at Ser473 after 1 hr by Western blot analysis; assay type: cell-based; conditions: A2058, 1 h
[47] = Ratio of drug level in C57BL/6JRj mouse brain to plasma at 50 mg/kg, po administered as single dose; assay type: ADME, organism-based; conditions: read-out: BPR
[48] = Cmax in Sprague-Dawley rat brain at 10 mg/kg, po administered as single dose after 30 mins; assay type: ADME, organism-based; parameters: dose 10 mg/kg, route oral
[49] = Apparent permeability of the compound by PAMPA; assay type: ADME
[50] = Toxicity in rat after 14 days; assay type: organism-based; conditions: in vivo
[51] = Half life in mouse hepatocytes; assay type: ADME, cell-based, Hepatocyte
[52] = Ratio of drug level in Sprague-Dawley rat brain to plasma at 10 mg/kg, po administered as single dose; assay type: ADME, organism-based; conditions: read-out: BPR
[53] = Drug uptake in Sprague-Dawley rat brain at 10 mg/kg, po administered as single dose measured at >8 hrs; assay type: ADME, organism-based; conditions: read-out: Drug uptake
[54] = target: Phosphatidylinositol 4,5-bisphosphate 3-kinase catalytic subunit gamma isoform (Homo sapiens, UniProt P48736)
Sequence of Phosphatidylinositol 4,5-bisphosphate 3-kinase catalytic subunit gamma isoform (P48736 whole entry, canonical isoform): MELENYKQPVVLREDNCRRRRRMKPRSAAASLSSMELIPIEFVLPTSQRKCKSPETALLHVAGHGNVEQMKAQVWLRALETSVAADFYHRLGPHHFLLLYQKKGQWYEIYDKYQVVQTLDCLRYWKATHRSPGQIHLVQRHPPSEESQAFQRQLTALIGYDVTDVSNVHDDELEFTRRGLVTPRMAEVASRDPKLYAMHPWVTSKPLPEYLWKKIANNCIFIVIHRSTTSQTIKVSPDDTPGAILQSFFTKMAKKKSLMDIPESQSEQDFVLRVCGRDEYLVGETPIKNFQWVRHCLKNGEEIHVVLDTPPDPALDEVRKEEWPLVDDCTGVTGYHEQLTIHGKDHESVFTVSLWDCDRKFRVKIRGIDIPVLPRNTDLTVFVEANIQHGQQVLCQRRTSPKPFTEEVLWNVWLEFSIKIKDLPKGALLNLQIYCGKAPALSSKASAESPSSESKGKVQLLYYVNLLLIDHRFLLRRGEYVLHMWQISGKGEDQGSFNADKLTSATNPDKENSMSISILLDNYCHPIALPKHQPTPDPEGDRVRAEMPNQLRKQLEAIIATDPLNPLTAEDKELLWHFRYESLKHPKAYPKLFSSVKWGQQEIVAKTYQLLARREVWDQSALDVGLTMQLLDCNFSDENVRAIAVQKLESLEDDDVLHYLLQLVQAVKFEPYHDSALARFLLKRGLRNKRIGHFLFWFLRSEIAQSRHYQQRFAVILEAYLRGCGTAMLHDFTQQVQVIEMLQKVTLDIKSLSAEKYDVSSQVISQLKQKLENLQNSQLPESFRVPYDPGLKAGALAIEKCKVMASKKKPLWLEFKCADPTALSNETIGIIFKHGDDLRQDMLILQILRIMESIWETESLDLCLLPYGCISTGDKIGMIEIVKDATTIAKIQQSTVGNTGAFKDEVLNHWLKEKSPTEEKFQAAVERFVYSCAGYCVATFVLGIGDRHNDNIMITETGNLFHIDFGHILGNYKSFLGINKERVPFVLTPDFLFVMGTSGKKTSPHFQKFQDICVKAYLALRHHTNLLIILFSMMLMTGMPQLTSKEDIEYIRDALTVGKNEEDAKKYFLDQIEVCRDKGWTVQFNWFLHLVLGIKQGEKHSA
Description: Inhibition of human PI3Kgamma (144 to 1102 residues) expressed in mammalian expression system by KINOMEscan assay

SMILES: CO[C@H]1C[C@@H]2CC[C@@H](C)[C@@](O)(O2)C(=O)C(=O)N2CCCC[C@H]2C(=O)O[C@H]([C@H](C)C[C@@H]2CC[C@@H](O)[C@H](OC)C2)CC(=O)[C@H](C)/C=C(\C)[C@@H](O)[C@@H](OC)C(=O)[C@H](C)C[C@H](C)/C=C/C=C/C=C/1C
- Activity [1]: Active
- Activity [2]: Active
- Activity [3]: Active
- Activity [4]: Active
- Activity [5]: Active
- Activity [6]: Active
- Activity [7]: Active
- Activity [8]: inactive

SMILES: Nc1cc(C(F)F)c(-c2nc(N3C4CCC3COC4)nc(N3C4CCC3COC4)n2)cn1
- Activity [9]: Active
- pKd [10]: < 4.52
- hepatocyte CLint [11]: 1.85 µL/min/1e6 cells
- solubility thermodynamic [12]: 335 µM (≈ 149 µg/mL)
- inhibition at 10 µM [13]: < 50%
- pKi [14]: 5.38
- solubility thermodynamic [15]: 66 µM (≈ 29.4 µg/mL)
- pIC50 [16]: 6.04
- MTD [17]: 150 mg/kg
- pKd [18]: 4.66
- pKd [19]: 6.00
- Activity [20]: inactive
- pKi [21]: 7.97
- solubility thermodynamic [22]: 20000 µM (≈ 8890 µg/mL)
- pKd [23]: 9.57
- Activity [24]: inactive
- AUC [25]: 404 µg·h/g
- half-life [26]: 7.81 h
- solubility thermodynamic [27]: 78.2 µM (≈ 34.8 µg/mL)
- fraction unbound [28]: 0.03
- pIC50 [29]: 7.07
- Cmax [30]: 7710 ng/g
- remaining at 0.5 h [31]: 70.2%
- solubility thermodynamic [32]: 33.7 µM (≈ 15 µg/mL)
- Activity [33]: Non-Toxic
- hepatocyte CLint [34]: 2.67 µL/min/1e6 cells
- Activity [35]: inactive
- inhibition at 10 µM [36]: < 50%
- inhibition (INH) [37]: Not Active
- logD [38]: 3.47
- AUC at 8 h [39]: 409 µg·h/mL
- Activity [40]: Active
- inhibition in vivo at 50 mg/kg [41]: > 50%
- pKd [42]: 4.64
- Cmax [43]: 1360 ng/mL
- pKd [44]: 5.56
- remaining at 0.5 h [45]: 108%
- pIC50 [46]: 6.72
- Kp [47]: 1.6
- Cmax [48]: 1310 ng/g
- Papp [49]: 5.22 ×10⁻⁶ cm/s
- MTD at 336 h [50]: 30 mg/kg
- half-life [51]: 5.41 h
- Kp [52]: 1
- concentration at 8 h [53]: 900 ng/g
- pKd [54]: 4.74
